Laboratory results published in patent US10235756B2, “Vascular analysis methods and apparatus” (Bio-Tree Systems, Inc., priority 2009, dated 2019).

Assays:
[1] = tested on: mouse tumor model generated using H1975 cells; experiment: Hot spot analysis in mouse tumor model; type: in vivo
Description: Applicant has appreciated that vascular information (e.g., based on vascular geometry) within a region (e.g., a wrapped 3D region) may be analyzed to identify one or more hot spots. For example, a threshold number of poker chips may be identified as a threshold for a hot spot within a unit volume of a tumor. The relative amount (e.g., percentage) of tumor vasculature that is represented by a hot spot then may be determined. This value may be used to evaluate the tumor (e.g., for diagnostic or prognostic purposes) or to evaluate a tumor response to therapy. In a non-limiting example, a hot spot may be defined as a cubic millimeter that contains more than 10,000 poker chips. FIGS. 73 and 74 illustrate experiments where the percentage represented by the hot spot regions (e.g., as a percentage of unit volumes within a tumor volume that are above the threshold for defining a hotspot) are evaluated in a mouse tumor model in response to Avastin treatment. The mouse tumor model was generated using H1975 cells. Mice were compared with and without Avastin treatment (Avastin provided for 10 days as described herein). The tumors analyzed were approximately 100 cubic mm in size. […]

[2] = tested on: human non-small cell lung tumor cell line (A549) subcutaneous tumors; experiment: Xenotopic tumor model, response to antiangiogenic therapy (vascular casts, micro CT); type: in vivo, mouse
Experimental: A tumor model can be generated by inoculating human non-small cell lung tumor cell line (A549 from ATCC, Inc.) subcutaneously in immunodeficient mice (SCID). SCID male mice (6-8 weeks old from Charles River Inc.) are inoculated subcutaneously in the lower back with a suspension of 1×10^6 human lung tumor cells (A549) in 0.2 ml of PBS. All mice are fed normal chow diet throughout the duration of the experiment. All mice weights are measured throughout the experiment. Tumor size is measured with calipers twice-a-week and tumor volume is calculated using the formula Length^2×Width×0.52. All mice are randomized into two treatment groups (approximately 10 mice per group) when the median tumor volume reaches approximately 500 mm^3. The treatment groups can be treated according to the following schedule using intraperitoneal (i.p.) administration of either a control composition or an anti-angiogenic compound. For example, different levels of an anti-angiogenic compound can be used and the results compared to a control group that is not treated with an anti-angiogenic compound (e.g., Avastin® available from Genentech, South San Francisco, Calif.). For example:
Group 1: Control group—treated with saline/PBS twice a week.
Group 2: High Avastin®—treated with Avastin® at 5 mg/kg/i.p. twice a week.
Group 3: Low Avastin®—treated with Avastin® at 0.5 mg/kg/i.p. twice a week.
Experiments are terminated 1.5 weeks after initial treatment.
At the end-point, all mice are anesthetized and systemically perfused with a casting agent.
In some embodiments, a tissue, for example, a tumor tissue, is perfused with a contrast and/or a casting agent prior to image acquisition. Methods of tissue perfusion are well known to those of skill in the art. In some embodiments, a tissue is perfused with Mercox, a casting agent available, for example, from Ladd Research, Williston, Vt. Mercox perfusion can be performed, as follows. An initial anticoagulation step for each animal is performed using an i.v. injection of heparin (10,000 U/ml, 0.3 cc/mouse). After 30 minutes, the animals are anesthetized. Each animal's heart is cannulated and the animal perfused with warm physiological saline at physiological pressure (with an open vein draining the organ or with an open vena cava). Perfusion is continued until the organ or animal is clear of blood. Mercox monomer is filtered through a 0.5 μm filter and a casting resin is prepared by mixing 8 ml Mercox, 2 ml methylmethacrylate, and 0.3 ml catalyst. The resin is infused through the same cannula until the onset of polymerization (the resin changes color to brown and emits heat, ˜10 min). The organ or animal is carefully immersed in a 60° C. water bath for 2 hours (or overnight in a sealed container). The tissue is removed by incubating in alternating rinses of 5% KOH and distilled water (for example in a 60° C. water bath sealed) followed by thorough rinsing in distilled water. The cast is cleaned in 5% formic acid for 15 minutes and rinsed thoroughly in distilled water and frozen in distilled water. The resulting block of ice is lyophilized (care should be taken not to melt the ice, the ice should […] as it lyophilizes). The resulting cast can be analyzed to identify one or more structural characteristics of interest.
Xenotopic mouse models obtained as described in Example 7 can be treated with either a control solution of saline/PBS or an anti-angiogenic preparation of Avastin® at 0.5 mg/kg/i.p. as described above. At the end-point, vascular casts can be prepared as described in Example 8 above and may be analyzed for two treated mice (both treated with Avastin® at 0.5 mg/kg/i.p.) and one control mouse. However, other experimental configurations may be used. The resulting vascular casts can be scanned using a micro CT-scanner and exemplary results of the structural analysis are shown in FIGS. 44-47. […] The blood vessel population distributions were consistent for both treated animals. […]

glioblastoma = experiment: Vascular biomarker analysis of control and Avastin-treated glioblastoma (3D tumor vasculature, tumor wrap); type: in vivo
Description: X-ray images of a control tumor and an Avastin-treated tumor are shown side by side in FIG. 43. […] FIGS. 46 and 47 show exemplary tumor wraps of the same control and Avastin-treated tumors. FIGS. 48-52 exemplify visualization of the distribution of microvascular density within two exemplary tumors.
In some embodiments, the assessment of vascular hot spots and/or necrotic regions within a diseased tissue, for example a malignant tumor, may be used in the evaluation of a treatment targeting said diseased tissue, for example the administration of a chemotherapeutic agent. FIG. 54 exemplify a comparison of vascular hot spots and necrotic regions in glioblastoma treated with Avastin to vascular hot spots and necrotic regions in non-treated control glioblastoma. […] Assessment of an exemplary vascular density related biomarker, total vessel density (number of vessels per given volume), in Avastin-treated glioblastoma and untreated controls is depicted in FIG. 56. Assessment of another exemplary vascular density related biomarker, mean vessel density (average number of vessels over a number of volume units, for example defined by the boundary of a tumor), in Avastin-treated glioblastoma and untreated controls as depicted in FIG. 57. Assessment of an exemplary vascular density related biomarker, total vessel volume density (number of voxels belonging to a vessel within a given volume), in Avastin-treated glioblastoma and untreated controls is depicted in FIG. 58. Assessment of another exemplary vascular density related biomarker, mean vessel volume density (average number of voxels belonging to a vessel within a number of volume units, for example defined by the boundary of a tumor), in Avastin-treated glioblastoma and untreated controls as depicted in FIG. 59. In some embodiments, a boundary of a tissue, for example a tumor, are determined based on vascular imaging and modeling data, and a subsequent assessment qualifying a voxel within those boundaries is carried out. In some embodiments, a biomarker is […] in a plurality of such qualified voxels. For example, the boundary of a solid tumor may be determined based on the abnormal vasculature associated with malignant tissue, for example by “tumor-wrap”, and vascular density related biomarkers may be assessed for tissue within that boundary.
It should be appreciated, that the biomarkers related to by some aspects of this invention may be useful in a wide variety of diagnostic and therapeutic modalities and applications, some non-limiting examples of which are described herein.

vasculature = experiment: Morphological features as a function of vessel diameter, control vs treated vasculature; type: in vivo; settings: control vasculature vs vasculature treated with Avastin, FIGS. 30-32
Description: As discussed above, computed morphological features may be used to compare the same features obtained from healthy tissue, or to compare the same features extracted from a bounded vasculature at different points in time to, for example, assess the effectiveness of treatment. FIGS. 30-33 illustrate examples of using various morphological properties described herein to, for example, quantify diseased vasculature and/or assess the effectiveness of a particular treatment. FIGS. 30-32 illustrate plots of a respective morphological feature as a function of vessel diameter for a control vasculature and for a vasculature treated with Avastin. […] Moreover, the impact may differ depending on the vessel size. That is, differences between the control and treated plots may be larger or smaller depending on the diameter of the vessel. Applicant has appreciated that the differences may be quantified to define a range wherein differences are different enough to help determine which vessel diameters are being targeted and impacted by the treatment.

[3] = 0.5 mg/kg/i.p., treated vs untreated tumors
[4] = Avastin-treated vs non-treated control glioblastoma, FIG. 55

Substance: bevacizumab [Avastin]
- mean percentage of hot spot regions ([1]; Avastin provided for 10 days, over the time of the experiment, FIG. 73): decrease
- percentage of hot spot regions after treatment ([1]; change of about 40% to about 10%, Avastin for 10 days, hot spot = cubic millimeter with more than 10,000 poker chips): about 10%
- mean tumor volumes ([2]; 0.5 mg/kg/i.p., treated vs control group at the end of the experiment): did not differ significantly
- blood vessel density ([2]; 0.5 mg/kg/i.p., treated vs control, FIGS. 54-67): differences in blood vessel density were detected
- percentage of middle diameter sized vessels [2, 3]: higher percentage
- small diameter sized vessels, less than untreated tumors [2, 3]: 20%
- vessel population ratio between large and middle size vessels ([2]; large approximately 147-161 μm, middle approximately 33-77 μm, after treatment): decreased
- vessel population ratio between small and middle size vessels ([2]; small approximately 21-35 μm, middle approximately 35-49 μm, after inhibitor treatment): decreased
- hot spot density (glioblastoma; [4]): significant decrease
- necrotic region volume (glioblastoma; [4]): significant increase
- vessel volume density (glioblastoma; [4]): significant decrease
- frequency of microvascular density bins (glioblastoma; control vs treated tumor, FIG. 53): different microvascular density bin distribution
- morphological features as a function of vessel diameter (vasculature): there are differences
